This is an account of results in paper PMC9276671, “A first-in-human Phase I dose-escalation trial of the novel therapeutic peptide, ALM201, demonstrates a favourable safety profile in unselected patients with ovarian cancer and other advanced solid tumours” (British Journal of Cancer, 2022).

Read-outs that look alike come from different tables or passages of the source. No end group written: not given here. Where only a bound is given, the exact number is not on record here.

Usually IC50 stands for the concentration that gives 50% inhibition. A word on the Cmax: it is the highest concentration seen after dosing. In general, Tmax refers to the time at which the peak concentration occurs.

Data set [1] in a line: Urinary excretion of unchanged ALM201 (LC-MS/MS). It is filed as in vivo. Particulars: human, sc, patients with positive urine concentrations, urine collected over 6 h after dosing, day 1 cycle 1, read-out: Amount excreted in the urine, % of the administered dose, mean (±SD).
The subject of data set [2] is ovarian patient-derived xenograft models. Particulars: cited from earlier work.
For data set [3], the system named is HMEC-1, a human vascular endothelial cell-line. Particulars: protocol Table 3; ref Investigator brochure (IB); read-out: Wound scrape IC50; cited from earlier work. An excerpt: page 37: Almac Discovery Confidential There are five main histological subtypes of ovarian cancer differing in tissue of origin, stage of presentation, sensitivity to chemotherapy, survival and driver genetic mutations. The most aggressive of these subtypes are the high grade serous tumours. […] ALM201 also had no effect on cytok ...

Data set [4] has as its system tubulin. Also noted: method as in Investigator brochure (IB). The note with it: ref Investigator brochure (IB), read-out: Tubulin polymerisation IC50, cited from earlier work.
The subject of data set [5] is DU145 and HT29 xenografts. Particulars: 3.0 mg/kg/day and 0.3 mg/kg/day, 14-day period, BALB-c SCID mouse, ref Investigator brochure (IB); cited from earlier work. The method, then:
In vivo studies using a BALB-c SCID mouse xenograft model with DU145 and HT29 cell-lines, where the small tumours can be directly examined in situ using confocal and standard microscopy have shown that administration of ALM201 inhibits a range of markers of new blood vessel formation. Tumours were typically 1-2 mm at baseline and assessments taken over a 14-day period. Dose levels of 3.0 mg/kg/d ...

Data set [6] deals with HT29, DU145 and MDA-231 xenografts. Particulars: cited from earlier work.
The conditions of data set [7]: Mouse, 3mg/kg SC, male animals; ref Investigator brochure (IB); cited from earlier work.

As to IRQQPRDPPTETLELEVSPDPAS [ALM201], in data set [1], the dose excreted was found to be 0.074%. The Tumour growth inhibition in data set [2] is more than 60%. For the same sequence, the IC50 in data set [3] was 0.009 nM. Further, the IC50 in data set [4] (protocol Table 2) is 0.1 nM. In addition, the IC50 in data set [4] (protocol Table 3) was 0.11 nM. In addition, the “Average vessel diameter, average segment length and vessel branch number” value in data set [5] is on record as “significant decreases”. Moreover, the “Tumour size relative to vehicle controls” value in data set [6] (0.3 mg/kg and 3.0 mg/kg daily or three times weekly, HT29, DU145 and MDA-231, ref Investigator brochure (IB)) is listed as “significant inhibition of tumour size”. For the same sequence, in data set [6] (single agent or in combination with chemotherapeutic agents, tumour xenograft models, ref Almac Discovery, manuscript in preparation), the “Anti-tumour activity in vivo” value is reported as “significant anti-tumour activity”. Besides, in data set [7], the “AUC24 (figure is for AUC0-∞)” value is 2166 ng·h/mL, the Cmax is reported as 3477 ng/mL, the Half-life is 12 min and the time to peak (Tmax) was 10 min.
